# Results from the supplement of paper PMC10307832.
# Key:
# Assay in all cases: relative viability (nuclei count vs DMSO), 5 days (fraction); higher = more cells survive
# SGI-1776 + Pictilisib = compound: CN1CCC(CNc2ccc3ncc(-c4cccc(OC(F)(F)F)c4)n3n2)CC1 [SGI-1776] + CS(=O)(=O)N1CCN(Cc2cc3nc(-c4cccc5[nH]ncc45)nc(N4CCOCC4)c3s2)CC1 [Pictilisib] (partner 1 µM)
# Summary of the method: (§1)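 Cells from lung cancer lines were seeded into 1536-well plates and, one day later, dosed by pin tool. Treatments were either a single drug or a fixed dose of an anchor drug with five library-drug doses (not always all listed) in √10 steps. After 5 days, nuclei were stained in a one-step fixation (final 0.05% Triton X-100, 1% formaldehyde, 1 ug/ml Hoechst) and counted on 4× images, and relative viability is the treated-to-vehicle nuclei ratio, as the median of duplicate plates.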
# SGI-1776 + Luminespib = compound: CN1CCC(CNc2ccc3ncc(-c4cccc(OC(F)(F)F)c4)n3n2)CC1 [SGI-1776] + CCNC(=O)c1noc(-c2cc(C(C)C)c(O)cc2O)c1-c1ccc(CN2CCOCC2)cc1 [Luminespib] (partner 0.01 µM)
# Summary of the method: as §1
# Entinostat + Trametinib = compound: Nc1ccccc1NC(=O)c1ccc(CNC(=O)OCc2cccnc2)cc1 [Entinostat] + CC(=O)Nc1cccc(-n2c(=O)n(C3CC3)c(=O)c3c(Nc4ccc(I)cc4F)n(C)c(=O)c(C)c32)c1 [Trametinib] (partner 0.02 µM)
# Summary of the method: as §1
# Entinostat + Luminespib = compound: Nc1ccccc1NC(=O)c1ccc(CNC(=O)OCc2cccnc2)cc1 [Entinostat] + CCNC(=O)c1noc(-c2cc(C(C)C)c(O)cc2O)c1-c1ccc(CN2CCOCC2)cc1 [Luminespib] (partner 0.01 µM)
# Summary of the method: as §1
cell line,measurement,setting,value
UMC-11,relative viability,SGI-1776 + Pictilisib; first compound 0.08 µM,0.791
same,relative viability,SGI-1776 + Pictilisib; first compound 0.8 µM,0.987
same,relative viability,SGI-1776 + Pictilisib; first compound 2.53 µM,0.812
same,relative viability,SGI-1776 + Pictilisib; first compound 8 µM,0.498
same,relative viability,SGI-1776 + Luminespib; first compound 0.08 µM,1.02
same,relative viability,SGI-1776 + Luminespib; first compound 0.8 µM,0.971
same,relative viability,SGI-1776 + Luminespib; first compound 2.53 µM,0.899
same,relative viability,SGI-1776 + Luminespib; first compound 8 µM,0.862
same,relative viability,Entinostat + Trametinib; first compound 0.02 µM,0.736
same,relative viability,Entinostat + Trametinib; first compound 0.06325 µM,0.895
same,relative viability,Entinostat + Trametinib; first compound 0.2 µM,0.554
same,relative viability,Entinostat + Trametinib; first compound 0.6325 µM,0.163
same,relative viability,Entinostat + Trametinib; first compound 2 µM,0.142
same,relative viability,Entinostat + Luminespib; first compound 0.02 µM,1.06
same,relative viability,Entinostat + Luminespib; first compound 0.06325 µM,1.14
same,relative viability,Entinostat + Luminespib; first compound 0.2 µM,0.937
same,relative viability,Entinostat + Luminespib; first compound 0.6325 µM,0.261
same,relative viability,Entinostat + Luminespib; first compound 2 µM,0.221
